Test results reported in ChEMBL document CHEMBL5226276, “Molecules with versatile biological activities bearing antipyrinyl nucleus as pharmacophore” (Eur J Med Chem, 2020).
Converted amounts (≈) assume the structure as drawn.

Legend:
[1] = Antioxidant activity assessed as DPPH radical scavenging activity incubated for 30 mins under dark condition; type: functional
[2] = Toxicity in brine shrimp assessed as lethal dose incubated for 24 hrs; details: artemia salina
Bacillus cereus = experiment: Antibacterial activity against Bacillus cereus assessed as inhibition of bacterial growth incubated for 24 hrs by filter paper disc diffusion assay; type: functional
Salmonella typhimurium = experiment: Antibacterial activity against Salmonella enterica subsp. enterica serovar Typhimurium assessed as inhibition of bacterial growth incubated for 24 hrs by filter paper disc diffusion assay; type: functional
[3] = system: Mycobacterium tuberculosis; experiment: Antimycobacterial activity against Mycobacterium tuberculosis H37Rv assessed as inhibition of bacterial growth at 1.56 to 100 ug/ml incubated for 6 days by alamar blue dye based broth microdilution assay; type: functional; details: dose 1.56-100 µg/ml; time 6 day; at 1.56 to 100 µg/mL
Aspergillus flavus = experiment: Antimicrobial activity against Aspergillus flavus assessed as inhibition of microbial growth incubated for 48 hrs by well dilution assay based UV-Vis spectroscopy; type: functional
Staphylococcus aureus = experiment: Antimicrobial activity against Staphylococcus aureus assessed as inhibition of microbial growth incubated for 24 hrs by well dilution assay based UV-Vis spectroscopy; type: functional
Escherichia coli = experiment: Antimicrobial activity against Escherichia coli assessed as inhibition of microbial growth incubated for 24 hrs by well dilution assay based UV-Vis spectroscopy; type: functional
Pseudomonas aeruginosa = experiment: Antimicrobial activity against Pseudomonas aeruginosa assessed as inhibition of microbial growth incubated for 24 hrs by well dilution assay based UV-Vis spectroscopy; type: functional
Klebsiella pneumoniae = experiment: Antimicrobial activity against Klebsiella pneumoniae assessed as inhibition of microbial growth incubated for 24 hrs by well dilution assay based UV-Vis spectroscopy; type: functional
Macrophomina phaseolina = experiment: Antimicrobial activity against Macrophomina phaseolina assessed as inhibition of microbial growth incubated for 48 hrs by well dilution assay based UV-Vis spectroscopy; type: functional
Proteus vulgaris = experiment: Antimicrobial activity against Proteus vulgaris assessed as inhibition of microbial growth incubated for 24 hrs by well dilution assay based UV-Vis spectroscopy; type: functional
Rhizopus stolonifer = experiment: Antimicrobial activity against Rhizopus stolonifer assessed as inhibition of microbial growth incubated for 48 hrs by well dilution assay based UV-Vis spectroscopy; type: functional
Aspergillus niger = experiment: Antimicrobial activity against Aspergillus niger assessed as inhibition of microbial growth incubated for 48 hrs by well dilution assay based UV-Vis spectroscopy; type: functional
Candida albicans = experiment: Antimicrobial activity against Candida albicans assessed as inhibition of microbial growth incubated for 48 hrs by well dilution assay based UV-Vis spectroscopy; type: functional
[4] = system: Mycobacterium tuberculosis; experiment: Antimycobacterial activity against Mycobacterium tuberculosis H37Rv assessed as inhibition of bacterial growth incubated for 6 days by alamar blue dye based broth microdilution assay; type: functional; details: time 6 day
[5] = Antioxidant activity assessed as DPPH radical scavenging activity by spectrophotometric assay; type: functional
[6] = Antioxidant activity assessed as DPPH radical scavenging activity; type: functional
[7] = Antioxidant activity assessed as DPPH radical scavenging activity incubated for 30 mins under dark condition by spectrophotometric assay; type: functional

Which IC50 [1] does the source give for Cc1c(/N=C/c2ccccc2)c(=O)n(-c2ccccc2)n1C here?
The IC50 was 31.3 µM.

With Cc1c(/N=C/c2ccc(Cl)cc2)c(=O)n(-c2ccccc2)n1C as the molecule, how does the LC50 [2] read?
Its LC50 is 225 ppm.

Which LC50 [2] does the source give for Cc1c(/N=C/c2ccc(O)c(O)c2)c(=O)n(-c2ccccc2)n1C here?
The LC50 was 481 ppm.

For Cc1c(/N=C/c2ccc(O)cc2O)c(=O)n(-c2ccccc2)n1C, which LC50 [2] is on record?
Its LC50 is 581 ppm.

Which MIC (Bacillus cereus) does the source give for COc1ccccc1/C=N/c1c(C)n(C)n(-c2ccccc2)c1=O here?
The MIC was 12.5 µg/mL (≈ 38.9 µM).

And the MIC (Salmonella typhimurium)?
Its MIC is 50 µg/mL (≈ 156 µM).

For COc1cccc(-c2csc(N/N=c3\c(/N=C/c4ccccc4)c(C)n(C)n3-c3ccccc3)n2)c1, which “inhibition (INH)” value [3] is on record?
The value was 90%.

With Cc1c(/N=C/c2ccccc2)/c(=N\Nc2nc(-c3ccccc3)cs2)n(-c2ccccc2)n1C as the molecule, how does the “inhibition (INH)” value [3] read?
The value was 90%.

What does the source list for Cc1c(/N=C/c2ccco2)/c(=N\c2ccccc2)n(-c2ccccc2)n1C?
MIC (Aspergillus flavus): 6 µg/mL; MIC (Staphylococcus aureus): 16 µg/mL; MIC (Escherichia coli): 16 µg/mL; MIC (Pseudomonas aeruginosa): 16 µg/mL; MIC (Klebsiella pneumoniae): 16 µg/mL; MIC (Macrophomina phaseolina): 6 µg/mL; MIC (Proteus vulgaris): 16 µg/mL; MIC (Rhizopus stolonifer): 6 µg/mL; MIC (Aspergillus niger): 6 µg/mL; MIC (Candida albicans): 6 µg/mL

For Cc1c(/N=C/c2ccc(Cl)cc2)/c(=N\Nc2nc(-c3ccccc3)cs2)n(-c2ccccc2)n1C, which “inhibition (INH)” value [3] is on record?
Its value is 90%.

For Cc1c(/N=C/c2ccc(O)cc2)/c(=N\Nc2nc(-c3ccccc3)cs2)n(-c2ccccc2)n1C, which “inhibition (INH)” value [3] is on record?
Its value is 90%.

With Cc1c(/N=C/c2ccccc2)/c(=N\Nc2nc(-c3ccc(O)c(O)c3)cs2)n(-c2ccccc2)n1C as the molecule, how does the “inhibition (INH)” value [3] read?
The value was 90%.

With Cc1c(/N=C/c2ccco2)/c(=N\c2ccc([N+](=O)[O-])cc2)n(-c2ccccc2)n1C as the molecule, how does the MIC (Aspergillus flavus) read?
Its MIC is 6 µg/mL.

What about the MIC (Staphylococcus aureus) of the same molecule?
The MIC was 16 µg/mL.

And the MIC (Escherichia coli)?
Its MIC is 16 µg/mL.

And the MIC (Pseudomonas aeruginosa)?
The MIC was 16 µg/mL.

And the MIC (Klebsiella pneumoniae)?
Its MIC is 16 µg/mL.

And the MIC (Macrophomina phaseolina)?
Its MIC is 6 µg/mL.

And the MIC (Proteus vulgaris)?
The MIC was 16 µg/mL.

And the MIC (Rhizopus stolonifer)?
Its MIC is 6 µg/mL.

What about the MIC (Aspergillus niger) of the same molecule?
The MIC was 6 µg/mL.

What about the MIC (Candida albicans) of the same molecule?
The MIC was 6 µg/mL.

For COc1cc(-c2csc(N/N=c3\c(/N=C/c4ccccc4)c(C)n(C)n3-c3ccccc3)n2)ccc1O, which “inhibition (INH)” value [3] is on record?
The value was 90%.

With Cc1c(/N=C/c2ccccc2)/c(=N\Nc2nc(-c3ccc([N+](=O)[O-])cc3)cs2)n(-c2ccccc2)n1C as the molecule, how does the “inhibition (INH)” value [3] read?
The value was 90%.

For Cc1c(/N=C/c2cccc(F)c2)/c(=N\Nc2nc(-c3ccccc3)cs2)n(-c2ccccc2)n1C, which “inhibition (INH)” value [3] is on record?
The value was 90%.

For Cc1c(/N=C/c2cccc(Cl)c2)/c(=N\Nc2nc(-c3ccccc3)cs2)n(-c2ccccc2)n1C, which “inhibition (INH)” value [3] is on record?
The value was 90%.

Which “inhibition (INH)” value [3] does the source give for Cc1c(/N=C/c2ccccc2Cl)/c(=N\Nc2nc(-c3ccccc3)cs2)n(-c2ccccc2)n1C here?
Its value is 90%.

For Cc1c(/N=C/c2ccccc2)/c(=N\Nc2nc(-c3ccc(O)cc3O)cs2)n(-c2ccccc2)n1C, which “inhibition (INH)” value [3] is on record?
Its value is 90%.

What about the MIC [4] of the same molecule?
Its MIC is 0.648 10^-3micromol/ml.

For COc1ccccc1/N=N/c1ccc(O)c2ncccc12, which IC50 [5] is on record?
The IC50 was 72 µg/mL (≈ 258 µM).

For Cc1c(/N=C/c2ccccc2)/c(=N\Nc2nc(-c3ccc(N(C)C)cc3)cs2)n(-c2ccccc2)n1C, which “inhibition (INH)” value [3] is on record?
Its value is 90%.

Which results are given for Cc1c(/N=C/c2ccco2)/c(=N\c2ccc(O)cc2)n(-c2ccccc2)n1C?
MIC (Aspergillus flavus): 6 µg/mL; MIC (Staphylococcus aureus): 16 µg/mL; MIC (Escherichia coli): 16 µg/mL; MIC (Pseudomonas aeruginosa): 16 µg/mL; MIC (Klebsiella pneumoniae): 16 µg/mL; MIC (Macrophomina phaseolina): 6 µg/mL; MIC (Proteus vulgaris): 16 µg/mL; MIC (Rhizopus stolonifer): 6 µg/mL; MIC (Aspergillus niger): 6 µg/mL; MIC (Candida albicans): 6 µg/mL

For Cc1cc(C(C)(C)C)c(O)c(C(C)(C)C)c1 [BUTYLATED HYDROXYTOLUENE], which IC50 [6] is on record?
Its IC50 is 32 µg/mL (≈ 145 µM).

What about the IC50 [5] of the same molecule?
The IC50 was 31 µg/mL (≈ 141 µM).

What about the IC50 [7] of the same molecule?
The IC50 was 32 µg/mL (≈ 145 µM).

For O=C(O)c1cc(O)c(O)c(O)c1 [GALLIC ACID], which LC50 [2] is on record?
Its LC50 is 78 ppm.
